Assay results taken from patent US20080261309A1, “IN VITRO MULTIPLICATION OF HOODIA PLANTS” (CONOPCO, INC., D/B/A/ UNILEVER, priority 2007, published 2008).
“And” between values parts separate entries of the source, which are not always exact repeats. Equal entries are not always repeated.

How the values were obtained:
Hoodia explants [1] = experiment: Effect of BAP and IAA concentrations and combinations on shoot multiplication; assay type: cell-based, Hoodia gordonii
Method: In all the multiplication and later rooting trials, the experiments were carried out in a randomised factorial design with at least four replicates per treatment. The student's t-test was used to determine significant difference between the phytohormone treatments. P values≦0.05 was considered significant.
This example tested the effect of different benzylaminopurine (BAP, cytokinin), indoleacetic acid (IAA, auxin) concentration and combinations on shoot multiplication.
The basal salt medium used for this experiment was M&S basal salt and vitamins. All the other components were the same as used for initiation medium in Example 1. […] Factorial experiments were designed to test the effect of these phytohormones on shoot multiplication.
Each treatment had four replicates. Results were obtained after two sub-cultures.

Hoodia explants [2] = experiment: Effect of gibberellic acid concentrations on shoot elongation and proliferation; assay type: cell-based, Hoodia gordonii; conditions: for Number of new shoots: replicates 1-7
Method: This Example investigated the effect of various giberellic acid concentrations on shoot elongation and proliferation.
An average of four shoots per explant was observed when the GA3 concentration was increased from 2.89 μM to 5.78 μM with 17.74 μM of BAP and 5.71 μM of IAA. As the concentration increased, the shoot length was retarded but side shoots were formed.

H. gordonii shoot tips = experiment: Sterilisation of shoot tips: clean plants free of visible bacteria or fungal growth; set-up: species or system Hoodia gordonii
Method: Example 1 investigated the effect of various sterilization protocols on the number of clean shoots and their ability to produce new shoots after sterilization.
A total of 211 shoot tips (5-6 cm) of fresh H. gordonii plant material were collected from cultivation sites.
The shoot tips were washed thoroughly for 3-5 minutes under running tap water and liquid detergent to remove any debris from the field. The spikes on some of the plants were carefully removed with a surgical blade before the sterilisation process. […] Each tub contained around 10 shoot tips placed in 300 ml of the sterilizing solution. The tubs were placed on a shaker at low speed 80 rpm for 5 minutes. After 5 minutes, the mercuric chloride was poured out and the plants were rinsed once in sterile distilled water. After rinsing with sterile distilled water, a second sterilisation process with 30% sodium hypochlorite solution was carried out. The tubs were placed on a shaker at a speed of 80 rpm for 30 or 40 minutes. A total of 188 shoots were sterilized for 30 minutes while […] shoots were sterilized for 40 minutes. After draining the sodium hypochlorite, a batch of the plants were rinsed in distilled sterile water before putting in the initiation medium white another batch was placed directly into the initiation medium without rinsing. Recording of the percentage clean plants was done two weeks after initiation. Clean plants were shoots that were free of visible bacteria or fungal growth.
After sterilisation, the shoot tips were cultured on Murashige and Skoog (M&S) basal salt medium with M&S vitamins supplemented with 30 g/l sucrose, 3 g/l gelrite, 25 mg/l cefotaxime. The phytohormones used for the initiation medium were 17.74 μM Benzylaminopurine (BAP) and 5.71 μM Indole acetic acid (IAA). The pH of all the media tested was adjusted to 5.8 with either 1M potassium hydroxide (KOH) or 1N hydrochloric acid (HCl) before autoclaving at 121° C. for 20 minutes. Each 250 ml bottle contained one shoot tip. All the cultures were incubated at 26±2° C. in a growth room with a 16/8 hour light/dark photoperiod (39-90 μE/m^2/s). New shoot growth normally started a week after sterilisation. After two weeks in culture, bottles that were visibly clean were counted.

Hoodia shoots = experiment: Effect of sucrose concentration on new shoot formation; assay type: cell-based, Hoodia gordonii; conditions: lowering sucrose from 30 g/l to 20 g/l in the multiplication medium
Source text: Example 6 tested the effect of three sucrose concentrations 0, 20 and 30 g/l on new shoot formation. All the other supplements were the same as for the initiation medium in Example 1. M&S basal salt and vitamin was used as the basal medium.
The sucrose concentrations used for the multiplication experiments were 0, 20 and 30 g/l respectively. There was no multiplication on plants placed in the control (0 g/l) medium which had no sugar. The shoots were stunted and started to turn to yellow after three weeks in culture.

SMILES: c1ccc(CNc2ncnc3[nH]cnc23)cc1 [BAP, benzylaminopurine]
- Average shoots per explant (Hoodia explants [1]; BAP 17.74 μM with IAA 5.71 μM): 4
- Callus growth (Hoodia explants [1]; BAP 17.74 μM with IAA 5.71 μM, compared to BAP 22.19 μM): less callus growth
- Average side shoots per explant (Hoodia explants [1]; BAP 22.19 μM and IAA 5.71 μM): four
- Auxiliary shoots production (Hoodia explants [1]; BAP concentrations higher than 44.38 μM): retarded

SMILES: C=C1C[C@]23C[C@@]1(O)CC[C@H]2[C@@]12C=C[C@H](O)[C@@](C)(C(=O)O1)[C@H]2[C@@H]3C(=O)O [GA3, gibberellic acid]
- Number of new shoots (Hoodia explants [2]; GA3 1.44 μM): 1 (3×) and 2 (2×) and 0 (2×)
- Shoot elongation and multiplication (Hoodia explants [2]; GA3 2.89 μM and 5.77 μM): elongated and multiplied better
- Number of new shoots (Hoodia explants [2]; GA3 2.89 μM): 3 (3×) and 2 (2×) and 4 (2×)
- Increase in length of the initial explant (Hoodia explants [2]; GA3 5.77 μM): ~1 cm
- Number of new shoots (Hoodia explants [2]; GA3 5.77 μM): 4 (2×) and 5 (2×) and 6 and 7 and 8
- Average shoots per explant (Hoodia explants [2]; GA3 increased from 2.89 μM to 5.78 μM with 17.74 μM BAP and 5.71 μM IAA): four

SMILES: OCl [sodium hypochlorite]
- Appearance of shoot tips after sterilisation (H. gordonii shoot tips; 30 minute treatment): still green
- Number of clean plants (H. gordonii shoot tips; 30 minutes of sterilisation, out of 188 plants): 170 plants out of 188
- Appearance of shoot tips after sterilisation (H. gordonii shoot tips; 40 minute treatment): heavily bleached on the external tissue
- Number of clean plants (H. gordonii shoot tips; 40 minutes of sterilisation, out of 44 total): 41 plants out of 44
- Difference in time taken for shoots to emerge (H. gordonii shoot tips; 40 minutes versus 30 minutes bleach treatment, in favour of 30 minutes): about one
- Contamination rate (H. gordonii shoot tips; sterilizing only with sodium hypochlorite (no mercuric chloride), field grown cultures): 80%

SMILES: OC[C@H]1O[C@@](CO)(O[C@H]2O[C@H](CO)[C@@H](O)[C@H](O)[C@H]2O)[C@@H](O)[C@@H]1O [sucrose]
- Effect on shoot development and multiplication (Hoodia shoots): no significant effect
